# Tests used:
# [1] = tested on: miR-17; assay: Gel-retardation assay, hybridization with miR-17; format: binding; settings: 50 mM Tris-HCl pH 7.0, 200 mM KCl, 1 mM EDTA, 37 °C, 45 min, mean of 3
# Text: We carried out a comparative analysis of the hybridization properties of the developed DCs with the corresponding SCs, which were the products of the first stage of the DCs synthesis. As discussed above, each SC consisted of the corresponding oligonucleotide A, which was complementary to the 5′-region of the matching miRNA target, and the catalytic peptide [LRLRG]2, attached to the 5′-end of this oligonucleotide via a thiohexyl linker (linker 2). […] Indeed, the level of binding of DCs to their miRNA targets reached 96, 90, 75, 55% at equimolar concentration (1 μM), and 99, 96, 92 and 69% at 5-fold excess of DCs over miR-17, miR-18a, miR-21 and miR-155, respectively (Figure 2). […]
# The reaction mixture (4 µL) containing 50 mM Tris-HCl, pH 7.0, 200 mM KCl and 1 mM EDTA, 100 cpm (Cherenkov’s counting) of [^32P]-miRNA, 1 μM unlabeled miRNA, a conjugate at a concentration ranging from 0.1 to 10 μM was incubated at 37 °C for 45 min and quenched by adding of a loading buffer (20% ficoll, 0.025% bromophenol blue, 0.025% xylene cyanol). […] Formation of the complex miRNA/conjugate was analyzed by electrophoresis in 15% native PAAG at 4 °C. The gels were analyzed using Molecular Imager FX. The extent of binding of conjugate to miRNA was determined as a ratio of radioactivity measured in the complex to the total radioactivity applied onto the gel lane.
# [2] = format: in vitro ADME, bovine; settings: serum
# Protocol: Stability of miRNA-21-DC and miRNA-155-DC and corresponding ONs was carried out in reaction mixtures (90 µL) containing DCs or ONs at a concentration of 0.1 mg/mL in Dulbecco’s Modified Eagle Medium (DMEM) with 10% FBS at 37 °C for 24 h. Aliquots (10 μL) were taken after 0, 0.5, 1, 2, 4, 8, and 24 h of incubation. The reaction was stopped by adding 10 μL of 8 M urea, and the reaction mixture was immediately frozen in liquid nitrogen. DCs and ONs cleavage products were analyzed in 12% PAAG/8M urea. To identified products, gels were stained with the Stains-All dye and photographed using a gel documentation system.
# Figure S12. Stability of Dual conju gat es (DCs) and corresponding Du al oligonucleotides (ONs)
# targeted to miR-155 and miR-21 in cell medium DMEM supplemented with 10% FBS . Im a g e s
# of the 12% PAAG/8M urea, stained with Stains-Alland kinetics of degradation of DCs and ONs .
# Conjugates and oligonucleotides at a concentration of 0. 1 mg/mL were incubated in DMEM
# supplemented with 10% FBS at 37 °C for 24 h.
# (1 picture or pasted object on this page, not shown here)
Substance,level of binding of DC to miRNA target ([1]; 5-fold excess of DC over miRNA (1 µM)),"level of binding of DC to miRNA target ([1]; equimolar, DC 1 µM : miRNA 1 µM, 15% native PAAG)",half-life time (τ1/2) in 10% FBS [2]
"CTACCTGC–linker 1–[GRLRL]2–linker 2–AAGCACTTTG [miRNA-17-DC, Dual oligonucleotide-peptide conjugate targeted to miR-17: catalytic peptide [LRLRG]2 between two 2-aminoadenine-containing oligodeoxyribonucleotides]",99%,96%,–
"TCAACATC–linker 1–[GRLRL]2–linker 2–GATAAGCTA [miRNA-21-DC, Dual oligonucleotide-peptide conjugate targeted to miR-21: catalytic peptide [LRLRG]2 between two 2-aminoadenine-containing oligodeoxyribonucleotides]",–,–,8 ± 0.1 h
"ACCCCTAT–linker 1–[GRLRL]2–linker 2–TTAGCATTAA [miRNA-155-DC, Dual oligonucleotide-peptide conjugate targeted to miR-155: catalytic peptide [LRLRG]2 between two 2-aminoadenine-containing oligodeoxyribonucleotides]",–,–,9.01 ± 0.5 h
